Test results taken from patent US20230340011A1 (Asteroid Therapeutics, priority 2022, published 2023).

Experiments:
[1] = biological target: LXRβ (Homo sapiens (Human), UniProt P55055); test: In vitro assay LXRβ: PathHunter NHR CHO cells, LXRβ / Steroid Receptor Co-activator Peptide enzyme fragment complementation; format: cell-based; conditions: PathHunter NHR CHO cells, full-length human LXRβ and SRCP, chemiluminescent signal; read-out: LXRβ PPI
Method in brief: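 Co-activator recruitment measured by chemiluminescence after signal generation. The CHO line carries full-length human LXRβ tagged with ProLink and an SRCP–enzyme acceptor fusion in the nucleus; cells sat overnight at 37° C before testing, in charcoal-dextran filtered serum medium with 1% final vehicle.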

[2] = biological target: SREBP-2 (Homo sapiens (Human), UniProt Q12772); test: In vitro assay SREBP-2: PathHunter U2OS SREBP-2 Nuclear Translocation Cell Line, U18666A-stimulated; format: cell-based; conditions: PathHunter U2OS SREBP-2 nuclear translocation cells, U18666A 10 μM, overnight (16 hours)

LXRβ, sequence (P55055 whole entry, the tested form may be a part): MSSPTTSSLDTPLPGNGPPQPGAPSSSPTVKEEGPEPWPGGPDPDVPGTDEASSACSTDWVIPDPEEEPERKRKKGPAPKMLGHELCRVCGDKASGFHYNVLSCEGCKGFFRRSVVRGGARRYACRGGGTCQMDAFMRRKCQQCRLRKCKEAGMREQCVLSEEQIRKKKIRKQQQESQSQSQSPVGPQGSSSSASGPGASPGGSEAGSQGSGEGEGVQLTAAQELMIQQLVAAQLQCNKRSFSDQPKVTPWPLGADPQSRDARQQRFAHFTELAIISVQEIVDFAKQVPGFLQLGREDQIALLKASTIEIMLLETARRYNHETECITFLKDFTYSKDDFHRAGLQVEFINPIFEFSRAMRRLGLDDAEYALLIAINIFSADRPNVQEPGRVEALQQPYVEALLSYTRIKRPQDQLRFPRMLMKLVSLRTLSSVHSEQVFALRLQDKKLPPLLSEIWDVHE

SMILES | EC50 [1] [nM] | IC50 [2] [nM]
C[C@H](CCC(=O)N1CCN(C(=O)OC2CC2)CC1)[C@H]1CC[C@H]2[C@@H]3CC=C4C[C@@H](O)CC[C@]4(C)[C@H]3CC[C@]12C [Example 340, cyclopropyl4-[(4R)-4-[(1R,3aS,3bS,7S,9aR,9bS,11aR)-7-hydroxy-9a,11a-dimethyl-1H,2H,3H,3aH,3bH,4H,6H,7H,8H,9H,9aH,9bH,10H,11H,11aH-cyclopenta[a]phenanthren-1-yl]pentanoyl]piperazine-1-carboxylate] | > 10000 | < 250
C[C@H](COc1ncccc1CO)[C@H]1CC[C@H]2[C@@H]3CC=C4C[C@@H](O)CC[C@]4(C)[C@H]3CC[C@]12C [Example 257, (3S,8S,9S,10R,13S,14S,17R)-17-((S)-1-((3-(hydroxymethyl)pyridin-2-yl)oxy)propan-2-yl)-10,13-dimethyl-2,3,4,7,8,9,10,11,12,13,14,15,16,17-tetradecahydro-1H-cyclopenta[a]phenanthren-3-ol] | > 10000 | < 250
Cc1nccc(CC[C@@H](C)[C@H]2CC[C@H]3[C@@H]4CC=C5C[C@@H](O)CC[C@]5(C)[C@H]4CC[C@]23C)n1 [Example 190, (3S,8S,9S,10R,13R,14S,17R)-10,13-dimethyl-17-((R)-4-(2-methylpyrimidin-4-yl)butan-2-yl)-2,3,4,7,8,9,10,11,12,13,14,15,16,17-tetradecahydro-1H-cyclopenta[a]phenanthren-3-ol] | 1000 to 10000 | 250 to 1000
C[C@H](CCc1ccc2ccccc2n1)[C@H]1CC[C@H]2[C@@H]3CC=C4C[C@@H](O)CC[C@]4(C)[C@H]3CC[C@]12C [Example 178, (3S,8S,9S,10R,13R,14S,17R)-10,13-dimethyl-17-((R)-4-(quinolin-2-yl)butan-2-yl)-2,3,4,7,8,9,10,11,12,13,14,15,16,17-tetradecahydro-1H-cyclopenta[a]phenanthren-3-ol] | > 10000 | 250 to 1000
C[C@H](CCC(=O)N1CCN(c2cccnn2)CC1)[C@H]1CC[C@H]2[C@@H]3CC=C4C[C@@H](O)CC[C@]4(C)[C@H]3CC[C@]12C [Example 303, (4R)-4-[(1R,3aS,3bS,7S,9aR,9bS,11aR)-7-hydroxy-9a,11a-dimethyl-1H,2H,3H,3aH,3bH,4H,6H,7H,8H,9H,9aH,9bH,10H,11H,11aH-cyclopenta[a]phenanthren-1-yl]-1-[4-(pyridazin-3-yl)piperazin-1-yl]pentan-1-one] | > 10000 | < 250
COC(=O)N1CCSC12CN(C(=O)CC[C@@H](C)[C@H]1CC[C@H]3[C@@H]4CC=C5C[C@@H](O)CC[C@]5(C)[C@H]4CC[C@]13C)C2 [Example 553, Methyl 2-((R)-4-((3S,8S,9S,10R,13R,14S,17R)-3-hydroxy-10,13-dimethyl-2,3,4,7,8,9,10,11,12,13,14,15,16,17-tetradecahydro-1H-cyclopenta[a]phenanthren-17-yl)pentanoyl)-5-thia-2,8-diazaspiro[3.4]octane-δ-carboxylate] | > 10000 | 250 to 1000
COC(=O)N1CCN(C(=O)C[C@@H](C)[C@H]2CC[C@H]3[C@@H]4CC=C5C[C@@H](O)CC[C@]5(C)[C@H]4CC[C@]23C)CC1 [Example 593, Methyl 4-[(3R)-3-[(1R,3aS,3bS,7S,9aR,9bS,11aR)-7-hydroxy-9a,11a-dimethyl-1H,2H,3H,3aH,3bH,4H,6H,7H,8H,9H,9aH,9bH,10H,11H,11aH-cyclopenta[a]phenanthren-1-yl]butanoyl]piperazine-1-carboxylate] | > 10000 | 1000 to 10000
C[C@H](CCC(=O)N1CC(C(O)(C(F)(F)F)C(F)(F)F)C1)[C@H]1CC[C@H]2[C@@H]3CC=C4C[C@@H](O)CC[C@]4(C)[C@H]3CC[C@]12C [Example 97, (R)-1-(3-(1,1,1,3,3,3-hexafluoro-2-hydroxypropan-2-yl)azetidin-1-yl)-4-((3S,8S,9S,10R,13R,14S,17R)-3-hydroxy-10,13-dimethyl-2,3,4,7,8,9,10,11,12,13,14,15,16,17-tetradecahydro-1H-cyclopenta[a]phenanthren-17-yl) pentan-1-one] | > 10000 | < 250
C[C@H](CCC(=O)N1CCS(=O)(=O)[C@H](C)C1)[C@H]1CC[C@H]2[C@@H]3CC=C4C[C@@H](O)CC[C@]4(C)[C@H]3CC[C@]12C [Example 356, (2R)-4-[(4R)-4-[(1R,3aS,3bS,7S,9aR,9bS,11aR)-7-hydroxy-9a,11a-dimethyl-1H,2H,3H,3aH,3bH,4H,6H,7H,8H,9H,9aH,9bH,10H,11H,11aH-cyclopenta[a]phenanthren-1-yl]pentanoyl]-2-methyl-1 λ^6-thiomorpholine-1,1-dione] | > 10000 | < 250
C[C@H](CCc1ncccc1F)[C@H]1CC[C@H]2[C@@H]3CC=C4C[C@@H](O)CC[C@]4(C)[C@H]3CC[C@]12C [Example 164, (3S,8S,9S,10R,13R,14S,17R)-17-((R)-4-(3-fluoropyridin-2-yl)butan-2-yl)-10,13-dimethyl-2,3,4,7,8,9,10,11,12,13,14,15,16,17-tetradecahydro-1H-cyclopenta[a]phenanthren-3-ol] | 250 to 1000 | 250 to 1000
C[C@H](COC(=O)N1CCN(c2ccncc2)CC1)[C@H]1CC[C@H]2[C@@H]3CC=C4C[C@@H](O)CC[C@]4(C)[C@H]3CC[C@]12C [Example 597, (2S)-2-[(1R,3aS,3bS,7S,9aR,9bS,11aS)-7-hydroxy-9a,11a-dimethyl-1H,2H,3H,3aH,3bH,4H,6H,7H,8H,9H,9aH,9bH,10H,11H,11aH-cyclopenta[a]phenanthren-1-yl]propyl 4-(pyridin-4-yl)piperazine-1-carboxylate] | > 10000 | < 250
Cc1ncsc1N1CCN(C(=O)CC[C@@H](C)[C@H]2CC[C@H]3[C@@H]4CC=C5C[C@@H](O)CC[C@]5(C)[C@H]4CC[C@]23C)CC1 [Example 607, (R)-4-((3S,8S,9S,10R,13R,14S,17R)-3-hydroxy-10,13-dimethyl-2,3,4,7,8,9,10,11,12,13,14,15,16,17-tetradecahydro-1H-cyclopenta[a]phenanthren-17-yl)-1-(4-(4-methylthiazol-5-yl)piperazin-1-yl)pentan-1-one] | > 10000 | < 250
Cc1noc(C(=O)N2CCN(C(=O)CC[C@@H](C)[C@H]3CC[C@H]4[C@@H]5CC=C6C[C@@H](O)CC[C@]6(C)[C@H]5CC[C@]34C)CC2)n1 [Example 292, (R)-4-((3S,8S,9S,10R,13R,14S,17R)-3-hydroxy-10,13-dimethyl-2,3,4,7,8,9,10,11,12,13,14,15,16,17-tetradecahydro-1H-cyclopenta[a]phenanthren-17-yl)-1-(4-(3-methyl-1,2,4-oxadiazole-5-carbonyl)piperazin-1-yl)pentan-1-one] | > 10000 | < 250
CC(C)OC(=O)N1CCN(C(=O)CC[C@@H](C)[C@H]2CC[C@H]3[C@@H]4CC=C5C[C@@H](O)CC[C@]5(C)[C@H]4CC[C@]23C)C[C@@H]1C [Example 576, isopropyl(S)-4-((R)-4-((3S,8S,9S,10R,13R,14S,17R)-3-hydroxy-10,13-dimethyl-2,3,4,7,8,9,10,11,12,13,14,15,16,17-tetradecahydro-1H-cyclopenta[a]phenanthren-17-yl)pentanoyl)-2-methylpiperazine-1-carboxylate] | > 10000 | < 250
CCC1(O)CC2(CN(C(=O)CC[C@@H](C)[C@H]3CC[C@H]4[C@@H]5CC=C6C[C@@H](O)CC[C@]6(C)[C@H]5CC[C@]34C)C2)C1 [Example 102, (R)-1-(6-ethyl-6-hydroxy-2-azaspiro[3.3]heptan-2-yl)-4-((3S,8S,9S,10R,13R,14S,17R)-3-hydroxy-10,13-dimethy12,3,4,7,8,9,10,11,12,13,14,15,16,17-tetradecahydro-1H-cyclopenta[a]phenanthren-17-yl)pentan-1-one] | > 10000 | < 250
C[C@H](CCC(=O)N1CCCOCC1)[C@H]1CC[C@H]2[C@@H]3CC=C4C[C@@H](O)CC[C@]4(C)[C@H]3CC[C@]12C [Example 81, (R)-4-((3S,8S,9S,10R,13R,14S,17R)-3-hydroxy-10,13-dimethyl-2,3,4,7,8,9,10,11,12,13,14,15,16,17-tetradecahydro-1H-cyclopenta[a]phenanthren-17-yl)-1-(1,4-oxazepan-4-yl)pentan-1-one] | 250 to 1000 | < 250
C[C@H](CCC(=O)N1CCC(C)(C)CC1)[C@H]1CC[C@H]2[C@@H]3CC=C4C[C@@H](O)CC[C@]4(C)[C@H]3CC[C@]12C [Example 5, (R)-1-(4,4-dimethylpiperidin-1-yl)-4-((3S,8S,9S,10R,13R,14S,17R)-3-hydroxy-10,13-dimethyl-2,3,4,7,8,9,10,11,12,13,14,15,16,17-tetradecahydro-1H-cyclopenta[a]phenanthren-17-yl)pentan-1-one] | 1000 to 10000 | < 250
COC(=O)N1CCN(C(=O)NC[C@@H](C)[C@H]2CC[C@H]3[C@@H]4CC=C5C[C@@H](O)CC[C@]5(C)[C@H]4CC[C@]23C)CC1 [Example 236, Methyl 4-(((S)-2-((3S,8S,9S,10R,13S,14S,17R)-3-hydroxy-10,13-dimethyl-2,3,4,7,8,9,10,11,12,13,14,15,16,17-tetradecahydro-1H-cyclopenta[a]phenanthren-17-yl)propyl)carbamoyl)piperazine-1-carboxylate] | > 10000 | < 250
C[C@H](CCC(=O)N1CCN(C(=O)c2ncccn2)CC1)[C@H]1CC[C@H]2[C@@H]3CC=C4C[C@@H](O)CC[C@]4(C)[C@H]3CC[C@]12C [Example 332, (R)-4-((3S,8S,9S,10R,13R,14S,17R)-3-hydroxy-10,13-dimethyl-2,3,4,7,8,9,10,11,12,13,14,15,16,17-tetradecahydro-1H-cyclopenta[a]phenanthren-17-yl)-1-(4-(pyrimidine-2-carbonyl)piperazin-1-yl)pentan-1-one] | > 10000 | < 250
